Laboratory results reported in patent publication US20140018340A1, “Insulin Mimetic Active Comprising Oxodiperoxo Vanadates and a Pharmaceutical Composition Obtained Thereof” (priority 2011, published 2014).

Tests used:
[1] = system: Glut4 in 3T3-L1 adipocytes; assay: In vitro assay of Glut 4 translocation (GFP-Glut4 transfected cells); format: cell-based; details: GFP-Glut4 transfected 3T3-L1 adipocytes
[2] = dose inducing insulin like activity, from cited reference; cited from earlier work

Substance	Glut4 translocation from cytosol to membrane [1]	Dose in-vitro [2] [mM]
insulin: the hormone which regulates the body's glucose level and metabolism	gets translocated to the membrane on addition of insulin	–
pervanadate	–	1
